Assay results reported in patent US8686150B2 (Sanofi, priority 2011, dated 2014).

Biological target: T1, human full-length recombinant PKC βII (Homo sapiens, UniProt P05771)
T1 construct: Active human full-length recombinant PKC βII; purchased Invitrogen GmbH, Darmstadt, Germany
Assay: Determination of PKC βII inhibition (Caliper mobility-shift kinase assay, Fluorescein-RFARKGSLRQKNV peptide substrate)
Format: biochemical
Conditions: example compounds at a final concentration of 1.14 μM (±0.15 μM)
Summary of the method: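 Compounds were tested at 1.14 μM final. Enzyme was activated by PS, DAG and CaCl2 in Hepes pH 7.4 with MgCl2, with substrate 3 μM and ATP 120 μM as pre-mix concentrations. After 60 min at 32 °C and an EDTA stop, Caliper separation gave fractional turnover, which was normalised to no-compound and no-enzyme controls.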

T1 sequence (P05771 1-673 isoform P05771-2): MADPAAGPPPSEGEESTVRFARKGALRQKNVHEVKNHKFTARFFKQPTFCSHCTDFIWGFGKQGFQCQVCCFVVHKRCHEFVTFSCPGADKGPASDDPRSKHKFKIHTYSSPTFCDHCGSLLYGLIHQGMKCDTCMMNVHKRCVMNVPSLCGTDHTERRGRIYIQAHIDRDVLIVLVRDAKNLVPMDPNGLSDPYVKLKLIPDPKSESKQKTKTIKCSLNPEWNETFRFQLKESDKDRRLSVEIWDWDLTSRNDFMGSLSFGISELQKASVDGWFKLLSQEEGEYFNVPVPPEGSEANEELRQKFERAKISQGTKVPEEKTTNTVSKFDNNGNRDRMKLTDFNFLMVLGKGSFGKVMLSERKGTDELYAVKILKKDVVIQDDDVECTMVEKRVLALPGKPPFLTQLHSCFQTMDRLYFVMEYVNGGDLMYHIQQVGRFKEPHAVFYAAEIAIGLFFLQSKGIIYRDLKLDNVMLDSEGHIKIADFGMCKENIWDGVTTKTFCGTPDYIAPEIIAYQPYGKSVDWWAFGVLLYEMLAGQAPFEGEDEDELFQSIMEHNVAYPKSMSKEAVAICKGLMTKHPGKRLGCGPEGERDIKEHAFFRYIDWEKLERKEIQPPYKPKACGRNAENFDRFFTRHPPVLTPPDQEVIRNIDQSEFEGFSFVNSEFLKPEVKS

SMILES	inhibition at 1.14 µM
CCC1(NC(=O)c2cc(-c3ccc(O)cc3F)nc3[nH]nc(C)c23)CCCNC1 (stereo not drawn) [Example 62, 6-(2-Fluoro-4-hydroxy-phenyl)-3-methyl-1H-pyrazolo[3,4-b]pyridine-4-carboxylic acid (3-ethyl-piperidin-3-yl)-amide]	100%
Cc1n[nH]c2nc(-c3ccc(O)cc3F)cc(C(=O)NC(C)(C)CCN)c12 [Example 66, 6-(2-Fluoro-4-hydroxy-phenyl)-3-methyl-1H-pyrazolo[3,4-b]pyridine-4-carboxylic acid (3-amino-1,1-dimethyl-propyl)-amide]	93%
Cc1cc(O)ccc1-c1cc(C(=O)N2CCNCC2c2ccc(C(F)(F)F)cc2)c2c(C)n[nH]c2n1 (stereo not drawn) [Example 154, [6-(4-Hydroxy-2-methyl-phenyl)-3-methyl-1H-pyrazolo[3,4-b]pyridin-4-yl]-[2-(4-trifluoromethyl-phenyl)-piperazin-1-yl]-methanone]	94%
Cc1n[nH]c2nc(-c3ccc(O)cc3)cc(C(=O)NC3CCN(Cc4ccccc4)CC3)c12 [Example 392, 6-(4-Hydroxy-phenyl)-3-methyl-1H-pyrazolo[3,4-b]pyridine-4-carboxylic acid (1-benzyl-piperidin-4-yl)-amide]	49%
CCCC1(N)CCCN(C(=O)c2cc(-c3ccc(O)cc3)nc3[nH]nc(C)c23)C1 (stereo not drawn) [Example 48, (3-Amino-3-propyl-piperidin-1-yl)-[6-(4-hydroxy-phenyl)-3-methyl-1H-pyrazolo[3,4-b]pyridin-4-yl]-methanone]	70%
Cc1n[nH]c2nc(-c3ccc(O)cc3)cc(C(=O)NC3CCN(Cc4ccccc4)C3)c12 (stereo not drawn) [Example 384, 6-(4-Hydroxy-phenyl)-3-methyl-1H-pyrazolo[3,4-b]pyridine-4-carboxylic acid (1-benzyl-pyrrolidin-3-yl)-amide]	67%
Cc1n[nH]c2nc(-c3ccc(O)cc3)cc(C(=O)N3CCCN(C(=O)c4ccncc4)CC3)c12 [Example 387, [6-(4-Hydroxy-phenyl)-3-methyl-1H-pyrazolo[3,4-b]pyridin-4-yl]-[4-(pyridine-4-carbonyl)-[1,4]diazepan-1-yl]-methanone]	39%
Cc1n[nH]c2nc(-c3ccc(O)cc3)cc(C(=O)NC3CCCNC3)c12 (stereo not drawn) [Example 242, 6-(4-Hydroxy-phenyl)-3-methyl-1H-pyrazolo[3,4-b]pyridine-4-carboxylic acid piperidin-3-ylamide]	87%
Cc1n[nH]c2nc(-c3ccc(O)cc3F)cc(C(=O)N3CCNCC34CCC4)c12 [Example 439, (5,8-Diaza-spiro[3.5]non-5-yl)-[6-(2-fluoro-4-hydroxy-phenyl)-3-methyl-1H-pyrazolo[3,4-b]pyridin-4-yl]-methanone]	99%
Cc1n[nH]c2nc(-c3ccc(O)cc3)cc(C(=O)N3CCNCC34Cc3ccccc3C4)c12 [Example 42, (1,3-Dihydro-spiro[indene-2,2′-piperazin]-1′-yl)-[6-(4-hydroxy-phenyl)-3-methyl-1H-pyrazolo[3,4-b]pyridin-4-yl]-methanone]	72%
Cc1n[nH]c2nc(-c3ccc(O)cc3F)cc(C(=O)N3CCNC(C4CC4)C3)c12 (stereo not drawn) [Example 423, (3-Cyclopropyl-piperazin-1-yl)-[6-(2-fluoro-4-hydroxy-phenyl)-3-methyl-1H-pyrazolo[3,4-b]pyridin-4-yl]-methanone]	84%
Cc1n[nH]c2nc(-c3ccc(O)cc3)cc(C(=O)NCC3CCCCN3)c12 (stereo not drawn) [Example 245, 6-(4-Hydroxy-phenyl)-3-methyl-1H-pyrazolo[3,4-b]pyridine-4-carboxylic acid (piperidin-2-ylmethyl)-amide]	83%
CC(=O)N1CCN(C(=O)c2cc(-c3ccc(O)c(F)c3)nc3[nH]nc(C)c23)CC1 [Example 356, 1-{4-[6-(3-Fluoro-4-hydroxy-phenyl)-3-methyl-1H-pyrazolo[3,4-b]pyridine-4-carbonyl]-piperazin-1-yl}-ethanone]	31%
Cc1n[nH]c2nc(-c3ccc(O)cc3)cc(C(=O)NC[C@H]3CC[C@H](N)CC3)c12 [Example 130, 6-(4-Hydroxy-phenyl)-3-methyl-1H-pyrazolo[3,4-b]pyridine-4-carboxylic acid (trans-4-amino-cyclohexylmethyl)-amide]	47%
O=C(c1cc(-c2ccc(O)cc2)nc2[nH]nc(C(F)(F)F)c12)N1CCC2(CCCNC2)C1 (stereo not drawn) [Example 407, (2,7-Diaza-spiro[4.5]dec-2-yl)-[6-(4-hydroxy-phenyl)-3-trifluoromethyl-1H-pyrazolo[3,4-b]pyridin-4-yl]-methanone]	20%
Cc1n[nH]c2nc(-c3ccc(O)cc3)cc(C(=O)N3CCNCC3c3ccccc3)c12 (stereo not drawn) [Example 26, [6-(4-Hydroxy-phenyl)-3-methyl-1H-pyrazolo[3,4-b]pyridin-4-yl]-(2-phenyl-piperazin-1-yl)-methanone]	97%
Cc1n[nH]c2nc(-c3ccc(O)cc3)cc(C(=O)N3CCC4CNCC43)c12 (stereo not drawn) [Example 226, (Hexahydro-pyrrolo[3,4-b]pyrrol-1-yl)-[6-(4-hydroxy-phenyl)-3-methyl-1H-pyrazolo[3,4-b]pyridin-4-yl]-methanone]	95%

SMILES	inhibition at 1.14 µM
Cc1n[nH]c2nc(-c3ccc(O)c(F)c3)cc(C(=O)NC3CCCN(C)C3)c12 (stereo not drawn) [Example 355, 6-(3-Fluoro-4-hydroxy-phenyl)-3-methyl-1H-pyrazolo[3,4-b]pyridine-4-carboxylic acid (1-methyl-piperidin-3-yl)-amide]	60%
Cc1n[nH]c2nc(-c3ccc(O)cc3)cc(C(=O)N3CCNCC3Cc3ccccc3)c12 (stereo not drawn) [Example 217, (2-Benzyl-piperazin-1-yl)-[6-(4-hydroxy-phenyl)-3-methyl-1H-pyrazolo[3,4-b]pyridin-4-yl]-methanone]	93%
Cc1n[nH]c2nc(-c3ccc(O)cc3)cc(C(=O)N3CCNC[C@H]3C)c12 [Example 23, [6-(4-Hydroxy-phenyl)-3-methyl-1H-pyrazolo[3,4-b]pyridin-4-yl]-((R)-2-methyl-piperazin-1-yl)-methanone]	95%
Cc1n[nH]c2nc(-c3ccc(O)cc3F)cc(C(=O)NC3(c4ccccc4)CCNCC3)c12 [Example 440, 6-(2-Fluoro-4-hydroxy-phenyl)-3-methyl-1H-pyrazolo[3,4-b]pyridine-4-carboxylic acid (4-phenyl-piperidin-4-yl)-amide]	90%
O=C(NC1CNC1)c1cc(-c2ccc(O)cc2)nc2[nH]nc(C(F)(F)F)c12 [Example 402, 6-(4-Hydroxy-phenyl)-3-trifluoromethyl-1H-pyrazolo[3,4-b]pyridine-4-carboxylic acid azetidin-3-ylamide]	41%
Cc1n[nH]c2nc(-c3ccc(O)cc3)cc(C(=O)N3CCNC(C4CC4)C3)c12 (stereo not drawn) [Example 86, (3-Cyclopropyl-piperazin-1-yl)-[6-(4-hydroxy-phenyl)-3-methyl-1H-pyrazolo[3,4-b]pyridin-4-yl]-methanone]	96%
COc1ccc(C2CNCCN2C(=O)c2cc(-c3ccc(O)cc3)nc3[nH]nc(C)c23)cc1 (stereo not drawn) [Example 69, [6-(4-Hydroxy-phenyl)-3-methyl-1H-pyrazolo[3,4-b]pyridin-4-yl]-[2-(4-methoxy-phenyl)-piperazin-1-yl]-methanone]	100%
Cc1n[nH]c2nc(-c3ccc(O)cc3)cc(C(=O)NCC(c3ccccc3)N3CCNCC3)c12 (stereo not drawn) [Example 393, 6-(4-Hydroxy-phenyl)-3-methyl-1H-pyrazolo[3,4-b]pyridine-4-carboxylic acid (2-phenyl-2-piperazin-1-yl-ethyl)-amide]	55%
COc1cc(O)ccc1-c1cc(C(=O)N2CCNCC2)c2c(C)n[nH]c2n1 [Example 14, [6-(4-Hydroxy-2-methoxy-phenyl)-3-methyl-1H-pyrazolo[3,4-b]pyridin-4-yl]-piperazin-1-yl-methanone]	94%
Cc1n[nH]c2nc(-c3ccc(O)cc3)cc(C(=O)NC3CNCC3c3ccccc3)c12 (stereo not drawn) [Example 45, 6-(4-Hydroxy-phenyl)-3-methyl-1H-pyrazolo[3,4-b]pyridine-4-carboxylic acid (4-phenyl-pyrrolidin-3-yl)-amide]	84%
Cc1n[nH]c2nc(-c3ccc(O)cc3)cc(C(=O)NC(CCN)c3ccccc3)c12 (stereo not drawn) [Example 131, 6-(4-Hydroxy-phenyl)-3-methyl-1H-pyrazolo[3,4-b]pyridine-4-carboxylic acid (3-amino-1-phenyl-propyl)-amide]	68%
Cc1n[nH]c2nc(-c3ccc(O)cc3)cc(C(=O)N3CCNCC3C(F)(F)F)c12 (stereo not drawn) [Example 114, [6-(4-Hydroxy-phenyl)-3-methyl-1H-pyrazolo[3,4-b]pyridin-4-yl]-(2-trifluoromethyl-piperazin-1-yl)-methanone]	87%
Cc1n[nH]c2nc(-c3ccc(O)cc3)cc(C(=O)N3CCCC4(CNCCO4)C3)c12 (stereo not drawn) [Example 262, [6-(4-Hydroxy-phenyl)-3-methyl-1H-pyrazolo[3,4-b]pyridin-4-yl]-(1-oxa-4,8-diaza-spiro[5.5]undec-8-yl)-methanone]	59%
Cc1n[nH]c2nc(-c3ccc(O)cc3)cc(C(=O)N3CCNC[C@H]3Cc3ccccc3)c12 [Example 224, ((R)-2-Benzyl-piperazin-1-yl)-[6-(4-hydroxy-phenyl)-3-methyl-1H-pyrazolo[3,4-b]pyridin-4-yl]-methanone]	92%
CCC1(NC(=O)c2cc(-c3ccc(O)cc3)nc3[nH]nc(C)c23)CCNCC1 [Example 49, 6-(4-Hydroxy-phenyl)-3-methyl-1H-pyrazolo[3,4-b]pyridine-4-carboxylic acid (4-ethyl-piperidin-4-yl)-amide]	97%
Cc1n[nH]c2nc(-c3ccc(O)cc3)cc(C(=O)N3CCN(C)CC3)c12 [Example 37, [6-(4-Hydroxy-phenyl)-3-methyl-1H-pyrazolo[3,4-b]pyridin-4-yl]-(4-methyl-piperazin-1-yl)-methanone]	53%
